Where two headings read alike, the source gives them in different places.
Columns and labels:
[1] = test system: P388 cells or L1210 cells; assay: survival of BDF1 mice inoculated with P388 or L1210 cells; assay type: in vivo; details: for T/C / 30 day survivors / Mean survival time: daily for 10 days; for 30 day survivors: control 0/8; for Mean survival time: control 10.0; for survival time prolonged, rate compared with control mice: dosage range 0.5 to 5 mg./kg. per day, i.p. daily for 10 days
Method: 2. […] For example, when BDF1 mice weighing 18 to 22 grams are inoculated with 1 × 10^6 cells of P388 cells or 5 × 10^5 cells of L1210 cells intraperitoneally and aclacinomycin A and B and aclacinomycin A-DNA complex are administered intraperitoneally once daily for 10 days consecutively 24 hours after the inoculation, the survival time of the mice is prolonged remarkably at the rate of over 150% in a dosage range of 0.5 to 5 mg./kg. of body weight per day compared with control mice receiving no antibiotic, as shown in the following table: […]

[2] = cardiotoxicity (general statement); details: in vivo
[3] = test system: L1210 leukemia cells; assay: survival of mice with L1210 leukemia, treatment days 1, 5 and 9; assay type: in vivo; details: for 30 day survivors / Mean survival time: days 1, 5 and 9; for 30 day survivors: control 0/10; for Mean survival time: control 10.4
Source text: Mice are inoculated intraperitoneally with a suspension of L1210 leukemia cells and treated with solutions of different concentrations of aclacinomycin A and 1, 5 and 9 days following the tumor implantation.

[4] = test system: lymphoma 6C3HED/OG, solid type; assay: growth of solid lymphoma 6C3HED/OG in CH3/He mice; assay type: in vivo; details: for Inhibition / 21 day survivors / Tumor weight/Body weight / Tumor weight: 10 days; for 21 day survivors: control 7/9; for Tumor weight/Body weight: control 29.6; for Tumor weight: control 7045
[5] = test system: Sarcoma 180; assay: growth of Sarcoma 180 in mice; assay type: in vivo
[6] = test system: Ehrlich carcinoma; assay: growth of Ehrlich carcinoma in mice; assay type: in vivo; details: ascites and solid forms
[7] = in vivo
[8] = test system: hepatomas; assay: hepatomas in rats (summary in words); assay type: in vivo
[9] = test system: lymphoma 6C3HED/OG, ascitic type; assay: ascitic lymphoma 6C3HED/OG in CH3/He mice; assay type: in vivo; details: for T/C (Survival ratio: Tested/control) / 62 day survivors / MST (Mean survival time): 10 days; for 62 day survivors: control 0/3; for MST (Mean survival time): control 20.5
[10] = test system: ascitic hepatoma AH44; assay: survival of Donryu rats grafted with ascitic hepatoma AH44; assay type: in vivo; details: 2 mg./kg./day i.p., 10 consecutive days; control average survival 14.5 days

CCC1(O)CC(OC2CC(N(C)C)C(OC3CC4OC5CC(=O)C(C)OC5OC4C(C)O3)C(C)O2)c2c(cc3c(c2O)C(=O)c2c(O)cccc2C3=O)C1C(=O)OC (centres unmarked) [Aclacinomycin B]
T/C ([1]; 0.5 mg./kg./day i.p.): 147%
30 day survivors ([1]; 0.5 mg./kg./day i.p.): 0/4
Mean survival time ([1]; 0.5 mg./kg./day i.p.): 14.7 days
T/C ([1]; 1.0 mg./kg./day i.p.): 190%
30 day survivors ([1]; 1.0 mg./kg./day i.p.): 1/4
Mean survival time ([1]; 1.0 mg./kg./day i.p.): 19.0 days
T/C ([1]; 2.0 mg./kg./day i.p.): 175%
30 day survivors ([1]; 2.0 mg./kg./day i.p.): 0/4
Mean survival time ([1]; 2.0 mg./kg./day i.p.): 17.5 days
T/C ([1]; 4.0 mg./kg./day i.p.): 85%
30 day survivors ([1]; 4.0 mg./kg./day i.p.): 0/4
Mean survival time ([1]; 4.0 mg./kg./day i.p.): 8.5 days
survival time prolonged, rate compared with control mice [1]: over 150%
cardiotoxicity [2]: low cardiotoxicity

CCC1(O)CC(OC2CC(N(C)C)C(OC3CC(O)C(OC4CCC(=O)C(C)O4)C(C)O3)C(C)O2)c2c(cc3c(c2O)C(=O)c2c(O)cccc2C3=O)C1C(=O)OC (centres unmarked) [Aclacinomycin A]
30 day survivors ([3]; 1.5 mg/kg/day): 0/5
Mean survival time ([3]; 1.5 mg/kg/day): 12.6 days
30 day survivors ([3]; 3 mg/kg/day): 2/5
Mean survival time ([3]; 3 mg/kg/day): 23.3 days
30 day survivors ([3]; 6 mg/kg/day): 2/5
Mean survival time ([3]; 6 mg/kg/day): 21.7 days
30 day survivors ([3]; 12 mg/kg/day): 0/5
Mean survival time ([3]; 12 mg/kg/day): 16.1 days
mean survival time of the treated mice (in words) ([3]; 6 and 3 mg./kg./day): increased considerably
Inhibition ([4]; 0.5 mg./kg./day i.p.): 47.6%
21 day survivors ([4]; 0.5 mg./kg./day i.p.): 3/3
Tumor weight/Body weight ([4]; 0.5 mg./kg./day i.p.): 12.4%
Tumor weight ([4]; 0.5 mg./kg./day i.p.): 3695 mg
Inhibition ([4]; 1 mg./kg./day i.p.): 64.5%
21 day survivors ([4]; 1 mg./kg./day i.p.): 3/3
Tumor weight/Body weight ([4]; 1 mg./kg./day i.p.): 9.5%
Tumor weight ([4]; 1 mg./kg./day i.p.): 2501 mg
Inhibition ([4]; 2 mg./kg./day i.p.): 34.2%
21 day survivors ([4]; 2 mg./kg./day i.p.): 3/3
Tumor weight/Body weight ([4]; 2 mg./kg./day i.p.): 15.1%
Tumor weight ([4]; 2 mg./kg./day i.p.): 4633 mg
Inhibition ([4]; 4 mg./kg./day i.p.): 28.7%
21 day survivors ([4]; 4 mg./kg./day i.p.): 0/3
Tumor weight/Body weight ([4]; 4 mg./kg./day i.p.): 19.5%
Tumor weight ([4]; 4 mg./kg./day i.p.): 5023 mg
inhibition of growth of solid 6C3HED/OG tumor (in words) ([4]; i.p. daily for 10 days): marked inhibition of the growth
inhibition of growth of Sarcoma 180 [5]: effective in inhibiting the growth
inhibition of growth of Ehrlich carcinoma [6]: effective in inhibiting the growth
cardiotoxicity [7]: low cardiotoxicity
T/C ([1]; 0.5 mg./kg./day i.p.): 230%
30 day survivors ([1]; 0.5 mg./kg./day i.p.): 2/4
Mean survival time ([1]; 0.5 mg./kg./day i.p.): 23.0 days
T/C ([1]; 1.0 mg./kg./day i.p.): 280%
30 day survivors ([1]; 1.0 mg./kg./day i.p.): 3/4
Mean survival time ([1]; 1.0 mg./kg./day i.p.): 28.0 days
T/C ([1]; 2.0 mg./kg./day i.p.): 300%
30 day survivors ([1]; 2.0 mg./kg./day i.p.): 4/4
Mean survival time ([1]; 2.0 mg./kg./day i.p.): 30.0 days
T/C ([1]; 4.0 mg./kg./day i.p.): 215%
30 day survivors ([1]; 4.0 mg./kg./day i.p.): 1/4
Mean survival time ([1]; 4.0 mg./kg./day i.p.): 21.5 days
survival time prolonged, rate compared with control mice [1]: over 150%
inhibition of growth of hepatomas [8]: effective in inhibiting the growth
T/C (Survival ratio: Tested/control) ([9]; 0.5 mg./kg./day i.p.): 73%
62 day survivors ([9]; 0.5 mg./kg./day i.p.): 0/3
MST (Mean survival time) ([9]; 0.5 mg./kg./day i.p.): 15.0 days
T/C (Survival ratio: Tested/control) ([9]; 1 mg./kg./day i.p.): 183%
62 day survivors ([9]; 1 mg./kg./day i.p.): 1/3
MST (Mean survival time) ([9]; 1 mg./kg./day i.p.): 37.5 days
T/C (Survival ratio: Tested/control) ([9]; 2 mg./kg./day i.p.): 155%
62 day survivors ([9]; 2 mg./kg./day i.p.): 0/3
MST (Mean survival time) ([9]; 2 mg./kg./day i.p.): 31.8 days
T/C (Survival ratio: Tested/control) ([9]; 4 mg./kg./day i.p.): 98%
62 day survivors ([9]; 4 mg./kg./day i.p.): 0/3
MST (Mean survival time) ([9]; 4 mg./kg./day i.p.): 20.1 days
inhibition of growth of ascitic 6C3HED/OG tumor (in words) ([9]; i.p. daily for 10 days): marked inhibition of the growth
survival 30 days after the experiment [10]: all the treated rats were alive 30 days after the experiment

— patent US4071411A, “Antitumor antibiotics aclacinomycins A and B [RD-9187A]” (priority 1974, dated 1978)
